The text below walks through data of US20230295159A1, “ATX INHIBITOR, AND PREPARATION METHOD THEREFOR AND USE THEREOF” (SUZHOU ARK BIOPHARMACEUTICAL CO., LTD., priority 2020, published 2023).

Data set [1] concerns Chinese hamster ovary cells (CHO-WBL). Description: In vitro micronucleus assay with Chinese hamster ovary cells. Here is the method:
In the major micronucleus assay, CHO-WBL cells were exposed to at least 3 concentrations of the test object, while vehicle control group and positive control group were set up, with 2 replicated wells for each dose group. In inactivated test system, the administration lasted for 3 and 24 hours, and in S9 activated test system, the exposure to the test object lasted for 3 hours.
When choosing the highest dose for micronucleus frequency assay, the cytotoxicity of dose group of the test object should not substantially exceed 50% of that of the corresponding vehicle control group.
On the premise that the test is valid, the test results are evaluated according to the following criteria:
If the test object simutaneously meets the following criteria, it can be considered as positive:
A significant increase in micronucleus frequency is observed in one or more concentration groups.
If none of the above three points is met, the test object can be considered as negative.

In the next data set the target is ATX enzyme (Homo sapiens (Human), UniProt Q13822). Description: ATX enzyme activity inhibition assay. In kind it is biochemical. Particulars: 16:0-LPC substrate, Amplex UltraRed fluorescence. Here is the method: The tested compounds were dissolved with dimethyl sulfoxide (DMSO) to prepare 20 mM of stock solutions, the stock solutions were subjected to 4-fold gradient dilutions with DMSO, with the initial concentration of 20 µM and a total of 8 concentration gradients. 20 nL of diluted compound was transferred to a 384-well plate using Echo 550 and 5 µL of ATX enzyme solution formulated with 4 × Tris-HCl reaction buffer to the well, then the 384-well plate was centrifuged at 1000 rpm for 1 min and […] pre-incubated at room temperature for 15 min. Subsequently, 5 µL of 16:0-LPC foumulated with the above 4 × reaction buffer and 10 µL of assay solution containng 2 × Amplex UltraRed reagent, choline oxidase and horseradish peroxidase (HRP) foumulated with the same reaction buffer were added to each well, then the 384-well plate was centrifugated at 1000 rpm for 1 min. The fluorescence signals were read at an excitation wavelength of 530 nm and an emission wavelength of 590 nm by Synergy 2 microplate reader. The inhibition rate of the compound against enzyme reaction was calculated according to the fluorescence intensity ratio, and IC50 of the compound was analysed and calculated by GraphPad Prism 5 software.

Data set [2] in a line: Rat pharmacokinetic study. In kind it is in vivo, SD rat. Conditions: for half-life: read-out: t½ (converted). The procedure: SD rat pharmacokinetic study was performed on several compounds in Examples of the present disclosure through a single intravenous injection (IV, at a dose of 2 mg/kg) and a single oral administration (PO, at a dose of 10 mg/kg), and blood samples were taken before administration and 5 min, 15 min, 30 min, 1 h, 2 h, 4 h, 8 h, 12 h and 24 h after administration, respectively, to determine the plasma concentration of the compound for assay. The pharmacokinetic data of control compound and the compounds in Examples 17, 26, 28 and 29 of the present disclosure in rat plasma are shown in Tables 4-8.

Setting [3] is: 3-hour administration with metabolic activation, 5 µg/ml.

Where two headings read alike, the source gives them in different places.

On to `O=P1(N(CCCl)CCCl)NCCCO1` (stereo not drawn) [Cyclophosphamide monohydrate], for which the “% binuclear cells containing micronucleus” value in data set [1] (setting [3]) stood at 20.8%.

Regarding `CCc1nc2ccc(-c3ccc(CC(=O)N4CC(O)C4)cc3)cn2c1N(C)c1nc(-c2ccc(F)cc2)c(C#N)s1` [Example 1, 2-((2-ethyl-6-(4-(2-(3-hydroxyazetidin-1-yl)-2-oxoethyl)phenyl)imidazo[1,2-a]pyridin-3-yl)(methyl)amino)-4-(4-fluorophenyl)thiazole-5-carbonitrile], at ATX enzyme, the IC50 (usually the concentration that inhibits the measured activity by half) stood at 30 nM.

Consider `CCc1nc2ccc(-c3ccc(CC(=O)N4CC(O)C4)nc3)cn2c1N(C)c1nc(-c2ccc(F)cc2)c(C#N)s1` [Example 2, 2-((2-ethyl-6-(6-(2-(3-hydroxyazetidin-1-yl)-2-oxoethyl)pyridin-3-yl)imidazo[1,2-a]pyridin-3-yl)(methyl)amino)-4-(4-fluorophenyl)thiazole-5-carbonitrile], for which the IC50 on ATX enzyme worked out at 29 nM.

`CCc1nc2ccc(-c3cnc(CC(=O)N4CC(O)C4)c(F)c3)cn2c1N(C)c1nc(-c2ccc(F)cc2)c(C#N)s1` [Example 3, 2-((2-ethyl-6-(5-fluoro-6-(2-(3-hydroxyazetidin-1-yl)-2-oxoethyl)pyridin-3-yl)imidazo[1,2-a]pyridin-3-yl)(methyl)amino)-4-(4-fluorophenyl)thiazole-5-carbonitrile]: the IC50 at ATX enzyme was 5.2 nM.

For `CCc1nc2ccc(-c3ccc(CC(=O)N4CC(O)C4)nn3)cn2c1N(C)c1nc(-c2ccc(F)cc2)c(C#N)s1` [Example 5, 2-((2-ethyl-6-(6-(2-(3-hydroxyazetidin-1-yl)-2-oxoethyl)pyridazin-3-yl)imidazo[1,2-a]pyridin-3-yl)(methyl)amino)-4-(4-fluorophenyl)thiazole-5-carbonitrile], the half-inhibitory concentration (IC50) at ATX enzyme was 48 nM.

As to `CCc1nc2ccc(-c3ccc(CC(=O)N4CC(O)C4)nc3C)cn2c1N(C)c1nc(-c2ccc(F)cc2)c(C#N)s1` [Example 6, 2-((2-ethyl-6-(6-(2-(3-hydroxyazetidin-1-yl)-2-oxoethyl)-2-methylpyridin-3-yl)imidazo[1,2-a]pyridin-3-yl)(methyl)amino)-4-(4-fluorophenyl)thiazole-5-carbonitrile], the IC50 at ATX enzyme was 29 nM.

As to `CCc1nc2ccc(-c3ccc(CC(=O)N4CC(O)C4)cn3)cn2c1N(C)c1nc(-c2ccc(F)cc2)c(C#N)s1` [Example 7, 2-((2-ethyl-6-(5-(2-(3-hydroxyazetidin-1-yl)-2-oxoethyl)pyridin-2-yl)imidazo[1,2-a]pyridin-3-yl)(methyl)amino)-4-(4-fluorophenyl)thiazole-5-carbonitrile], the IC50 at ATX enzyme turned out to be 25 nM.

`CCc1nc2ccc(-c3cnc(C(=O)N4CC(O)C4)cn3)cn2c1N(C)c1nc(-c2ccc(F)cc2)c(C#N)s1` [Example 8, 2-((2-ethyl-6-(5-(3-hydroxyazetidin-1-carbonyl)pyrazin-2-yl)imidazo[1,2-a]pyridin-3-yl)(methyl)amino)-4-(4-fluorophenyl)thiazole-5-carbonitrile]: the IC50 on ATX enzyme stood at 4.4 nM.

`CCc1nc2ccc(-c3cnc(C(C)(C)C(=O)N4CC(O)C4)cn3)cn2c1N(C)c1nc(-c2ccc(F)cc2)c(C#N)s1` [Example 9, 2-((2-ethyl-6-(5-(1-(3-hydroxyazetidin-1-yl)-2-methyl-1-oxopropan-2-yl)pyrazin-2-yl)imidazo[1,2-a]pyridin-3-yl)(methyl)amino)-4-(4-fluorophenyl)thiazole-5-carbonitrile]: the 50% inhibitory concentration (IC50) at ATX enzyme amounted to 28 nM.

Take `CCc1nc2ccc(-c3ncc(CC(=O)N4CC(O)C4)cc3F)cn2c1N(C)c1nc(-c2ccc(F)cc2)c(C#N)s1` [Example 10, 2-((2-ethyl-6-(3-fluoro-5-(2-(3-hydroxyazetidin-1-yl)-2-oxoethyl)pyridin-2-yl)imidazo[1,2-a]pyridin-3-yl)(methyl)amino)-4-(4-fluorophenyl)thiazole-5-carbonitrile]: on ATX enzyme, the IC50 turned out to be 18 nM.

`CCc1nc2ccc(-c3cnc(CC(=O)N4CC[C@H](O)C4)cn3)cn2c1N(C)c1nc(-c2ccc(F)cc2)c(C#N)s1` [Example 11, (S)-2-((2-ethyl-6-(5-(2-(3-hydroxypyrrolidin-1-yl)-2-oxoethyl)pyrazin-2-yl)imidazo[1,2-a]pyridin-3-yl)(methyl)amino)-4-(4-fluorophenyl)thiazole-5-carbonitrile]: at ATX enzyme, the IC50 came out at 25 nM.

`CCc1nc2ccc(-c3cnc(CC(=O)N4CC(CO)C4)cn3)cn2c1N(C)c1nc(-c2ccc(F)cc2)c(C#N)s1` [Example 12, 2-((2-ethyl-6-(5-(2-(3-(hydroxymethyl)azetidin-1-yl)-2-oxoethyl)pyrazin-2-yl)imidazo[1,2-a]pyridin-3-yl)(methyl)amino)-4-(4-fluorophenyl)thiazole-5-carbonitrile]: the half-inhibitory concentration (IC50) on ATX enzyme came out at 19 nM.

As to `CCc1nc2ccc(-c3cnc(CC(=O)N4CC[C@@H](O)C4)cn3)cn2c1N(C)c1nc(-c2ccc(F)cc2)c(C#N)s1` [Example 13, (R)-2-((2-ethyl-6-(5-(2-(3-hydroxypyrrolidin-1-yl)-2-oxoethyl)pyrazin-2-yl)imidazo[1,2-a]pyridin-3-yl)(methyl)amino)-4-(4-fluorophenyl)thiazole-5-carbonitrile], the IC50 at ATX enzyme stood at 13 nM.

In the case of `CCc1nc2ccc(-c3cnc(CC(=O)NCC4CCC(=O)N4)cn3)cn2c1N(C)c1nc(-c2ccc(F)cc2)c(C#N)s1` (stereo not drawn) [Example 14, 2-(5-(3-((5-cyano-4-(4-fluorophenyl)thiazol-2-yl)(methyl)amino)-2-ethylimidazo[1,2-a]pyridin-6-yl)pyrazin-2-yl)-N-((5-oxopyrrolidin-2-yl)methyl)acetamide], the IC50 at ATX enzyme amounted to 42 nM.

Take `CCc1nc2ccc(-c3cnc(C(=O)NC4CC5(CNC5)C4)cn3)cn2c1N(C)c1nc(-c2ccc(F)cc2)c(C#N)s1` [Example 15, 5-(3-((5-cyano-4-(4-fluorophenyl)thiazol-2-yl)(methyl)amino)-2-ethylimidazo[1,2-a]pyridin-6-yl)-N-(2-azaspiro[3.3]heptan-6-yl)pyrazin-2-carboxamide]: the IC50 on ATX enzyme stood at 40 nM.

With `CCc1nn2ccc(-c3cnc(N4CCCS4(=O)=O)nc3)nc2c1N(CC)c1nc(-c2ccc(F)cc2)c(C#N)s1` [Example 18, 2-((5-(2-(1,1-dioxidoisothiazolidin-2-yl)pyrimidin-5-yl)-2-ethyl-pyrazolo[1,5-a]pyrimidin-3-yl)(ethyl)amino)-4-(4-fluorophenyl)thiazole-5-carbonitrile], the IC50 on ATX enzyme was determined as 15 nM.

Turning to `CCc1nc2c(C)cc(N3CCN(CC(=O)N4CC(O)C4)CC3)cn2c1N(C)c1nc(-c2ccc(F)cc2)c(C#N)s1` [GLPG1690], the “% binuclear cells containing micronucleus” value in data set [1] (3-hour administration with metabolic activation, 2 µg/ml) stood at 1.55%; in data set [1] (setting [3]) it was 1.65%; in data set [1] (3-hour administration with metabolic activation, 10 µg/ml) it was 1.70%; in data set [1] (3-hour administration with metabolic activation, 30 µg/ml), 1.85%; in data set [1] (3-hour administration without metabolic activation, 2 µg/ml), 1.90%; in data set [1] (3-hour administration without metabolic activation, 5 µg/ml), 1.85%. Moreover, the “% binuclear cells containing micronucleus” value amounted to 1.65% in data set [1] (3-hour administration without metabolic activation, 10 µg/ml); 1.85% in data set [1] (3-hour administration without metabolic activation, 30 µg/ml); 1.95% in data set [1] (24-hour administration without metabolic activation, 2 µg/ml); 1.65% in data set [1] (24-hour administration without metabolic activation, 4 µg/ml); 1.60% in data set [1] (24-hour administration without metabolic activation, 6 µg/ml); 4.85% in data set [1] (24-hour administration without metabolic activation, 7 µg/ml). The “% binuclear cells containing micronucleus” value in data set [1] (24-hour administration without metabolic activation, 8 µg/ml) worked out at 14.4%. Besides, the “potential to induce micronucleus formation in CHO-WBL cells” value in data set [1] (overall verdict over all administration series) is “positive”. In addition, the results for the Cl_F_pred in data set [2] (IV 2 mg/kg) and in data set [2] (PO 10 mg/kg) were 7.5 mL/min/kg and 65.5 mL/min/kg, respectively. The molecule also registered a F in data set [2] (PO 10 mg/kg vs IV 2 mg/kg) of 12%. Also, the AUC(0-inf) (as a rule, the area under the concentration-time curve extrapolated to infinity) came to 4460 ng·h/mL in data set [2] (SD, plasma, IV 2 mg/kg) and 2700 ng·h/mL in data set [2] (SD, plasma, PO 10 mg/kg). The AUC(0-t) (in general, the area under the concentration-time curve up to a stated or last time point) in data set [2] (SD, plasma, IV 2 mg/kg) was 4460 ng·h/mL; in data set [2] (SD, plasma, PO 10 mg/kg), 2680 ng·h/mL. In addition, the Cmax (usually the maximum level reached in the sampled fluid or tissue) in data set [2] (SD, plasma, IV 2 mg/kg) stood at 8340 ng/mL; in data set [2] (SD, plasma, PO 10 mg/kg), 512 ng/mL. For the same molecule, the half-life in data set [2] (SD, plasma, IV 2 mg/kg) was 1.5 h; in data set [2] (SD, plasma, PO 10 mg/kg), 4 h. Moreover, the Tmax (usually the time from dosing to the highest level) in data set [2] (SD, plasma, PO 10 mg/kg) stood at 1 h.
